Data on two compounds can be found in PMC12022909, “A Multicomponent Reaction-Based Platform Opens New Avenues in Aryl Hydrocarbon Receptor Modulation” (ACS Central Science, 2025).

SMILES strings stand for the structures.

In experiment [1] the target is T1, aryl hydrocarbon receptor (AhR) (Homo sapiens, UniProt P35869).
T1 construct: AhR-dependent reporter gene activity was determined in human HepG2 cells stably transfected with an XRE; endogenous in cells; host or cells: XRE-HepG2 (human HepG2 hepatoma cells stably carrying an XRE-luciferase plasmid)
T1 sequence (P35869 11-848): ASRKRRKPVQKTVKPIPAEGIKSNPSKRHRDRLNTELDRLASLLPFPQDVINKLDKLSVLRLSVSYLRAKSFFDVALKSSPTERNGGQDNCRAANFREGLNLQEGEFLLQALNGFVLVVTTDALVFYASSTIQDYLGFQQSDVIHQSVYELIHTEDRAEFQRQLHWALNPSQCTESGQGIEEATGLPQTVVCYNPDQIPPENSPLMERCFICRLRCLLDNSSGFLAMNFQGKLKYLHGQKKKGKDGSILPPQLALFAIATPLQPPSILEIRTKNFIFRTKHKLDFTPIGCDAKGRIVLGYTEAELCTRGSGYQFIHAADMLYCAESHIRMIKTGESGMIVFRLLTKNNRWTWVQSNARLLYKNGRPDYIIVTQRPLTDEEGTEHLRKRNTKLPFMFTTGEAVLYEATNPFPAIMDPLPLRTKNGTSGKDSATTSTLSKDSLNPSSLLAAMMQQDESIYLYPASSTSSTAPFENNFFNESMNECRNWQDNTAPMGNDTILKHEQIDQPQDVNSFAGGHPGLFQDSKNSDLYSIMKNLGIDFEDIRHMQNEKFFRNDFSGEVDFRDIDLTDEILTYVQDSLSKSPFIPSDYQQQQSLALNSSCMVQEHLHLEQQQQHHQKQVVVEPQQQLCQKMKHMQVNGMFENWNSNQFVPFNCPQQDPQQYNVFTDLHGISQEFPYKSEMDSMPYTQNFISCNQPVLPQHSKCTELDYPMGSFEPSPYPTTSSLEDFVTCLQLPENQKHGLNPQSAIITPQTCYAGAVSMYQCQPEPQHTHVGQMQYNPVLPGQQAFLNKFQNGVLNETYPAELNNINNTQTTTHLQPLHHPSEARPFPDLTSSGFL
Kind of experiment: AhR/XRE-dependent luciferase reporter gene assay in XRE-HepG2 cells. The class given is cell-based. The conditions noted are these: for EC50: XRE-HepG2 cells, 8 h, unit as in the supplements, read-out: AhR/XRE-dependent luciferase activity EC50.
Description: (f) AhR/XRE-dependent reporter gene activity results (EC50/μM).
Data are shown as mean ± SEM.
The human XRE -HepG2 reporter cell -line was a kind gift of K. Gradin and L. Poellinger (Karolinska Institute, Stockholm,
antibiotic/antimycotic solution, and 0.8 mg/ml G418. All cells were cultivated at 37 °C in a humidified atmosphere containing 5% CO 2.
AhR-dependent reporter gene activity was determined in human HepG2 cells stably transfected with an XRE -harboring luciferase plasmid (XRE-HepG2 cells). […] Luciferase activity was normalized to protein content.

The target of experiment [2] is T2, AhR (Homo sapiens, UniProt P35869).
T2 construct: Degradation of endogenous AhR was further confirmed via Western blotting and global proteomics measurements in cells treated with 12b; host or cells: MCF7
T2 sequence (P35869 11-848): T1 sequence (P35869 11-848)
Kind of experiment: Western blot of AhR in MCF7 cells. The format is cell-based. The conditions noted are these: 10 µM, 5 h. Here is the method:
Figure S30. Agonists induce degradation of AhR.
12b, 12c, and 12d at a concentration of 10 µM for 5h. The numbers on the Blot indicate the signal intensities of the bands relative to the Tubulin bands, normalized to DMSO treatment as quantified with Empiria Studio. […]
Cell culture and treatment […]
MCF7 cells were purchased from ATCC and grown in DMEM with 10% FCS and 1% penicillin/ streptomycin. […]
All cells were cultivated at 37 °C in a humidified atmosphere containing 5% CO 2.
Tapinarof (MedChemExpress, Monmouth Junction, NJ), benzo[a]pyrene (Sigma-Aldrich, Taufkirchen, Germany), TCDD (Amchro, Hattersheim am Main, Germany) and all compounds synthesized in this study were dissolved in dimethyl sulfoxide (DMSO; Roth). […]
Quantitative real-time PCR […]
• CYP1A1: […] (forward (5'>3')); […] (reverse (5'>3')).
• CYP1B1: […] (forward (5'>3')); […] (reverse (5'>3')).
• CCL26: […] (forward (5'>3')); […] (reverse (5'>3')).
• IL-19: […] (forward (5'>3')); […] (reverse (5'>3')).
• CXCL1: […] (forward (5'>3')); […] (reverse (5'>3')).
• β-actin: […] (forward (5'>3')); […] (reverse (5'>3')). […]
The assay was carried out as described earlier. Luciferase activity was normalized to protein content.
SDS-PAGE/Western blot analysis
Cells were lysed in RIPA buffer on ice and subsequently centrifuged for 15 min at 4 °C at maximum speed. Protein samples were separated by 10% and 12% SDS -polyacrylamide gel electrophoresis and blotted onto PVDF (GE Healthcare, Freiburg, Germany) or Nitrocellulose (BioRad #17 04158) membranes. Blots were blocked with 5% skim milk or bovine serum albumin in TBS -Tween-20 (0.1%) for or Intercept® (TBS) Blocking Buffer (LI -COR Biosciences) 1 h at room temperature and subsequently incubated overnight at 4 °C with primary antibodies. Blots were washed and then incubated for 1 h with a 1:5000 dilution of HRP -conjugated secondary antibodies in 5% bovine serum albumin in TBS -Tween-20 (0.1%) or anti-Mouse (Licor, IRDye® 680RD Goat anti -Mouse IgG, 1:10k dilution) or anti-Rabbit secondary antibody (Licor, IRDye® Goat anti -Rabbit IgG, 1:10k dilution) at room temperature. Bands were visualized using WesternBright ECL HRP substrate (Advansta, San Jose, CA) and a C -DiGit Western Blot Scanner (LI -COR Biotechnology, Lincoln, NE) or a Licor Odyssey CLx imager. Primary antibodies used in this study are as follows. AhR (Cat.No. 83200; Cell Signaling Technology, Leiden, The Netherlands). AIP (Cat.No. sc-59730; Santa Cruz Biotechnology, Dallas, TX). Cul4B (Cat.No. abx004735; Abbexa, Houston, TX). GAPDH (Cat.No. 2118; Cell Signaling Technology). Vinculin (Cat.No. 13901, Cell Signaling Technology). α - Tubulin (Abcam, ab7291, 1:10k dilution).
HaCaT-EV and HaCaT-shAhR cells were treated with either vehicle (DMSO) or 10 µM 12d for 0.5 h and 1 h. […]

As for `Cc1[nH]c2ccccc2c1-c1c2[nH]c3ccccc3c2cc2[nH]c3ccccc3c12` [5e], the EC50 in experiment [1] worked out at 520 nM. Further, the “increase in the EC50 value relative to 5c” value in experiment [1] (from reporter gene EC50 values) is recorded as 1.4 fold. The AhR receptor proteolysis result in experiment [2] is “induced receptor proteolysis”.

Consider `CCOc1c2[nH]c3ccccc3c2cc2[nH]c3ccccc3c12` [compound 8, 6-ethoxy-ICZ], for which the EC50 in experiment [1] came to 90 nM.
